The subject of this assay is Plasmodium falciparum (3D7). Nature of the assay: Anti-malarial screen, parasite growth by SybrGreen staining. It is filed as cell-based. The conditions noted are these: dose response assay, test molecules from 10 μM to 1 nM, 60 hours incubation, SybrGreen read out. As for the experimental part: Plasmodium falciparum (3D7; Malaria Research and Reference Reagent Resource Center ID NO: MRA-102) is cultured in the laboratory as per standard protocols. Briefly, P. falciparum is cultured using 2% hematocrit washed RBCs, separated from freshly collected human blood, in Roswell Park Memorial Institute (RPMI) medium containing glutamine, sodium bicarbonate and antibiotics. Parasites are synchronized using either 5% sorbitol treatment or by enriching late stage parasites using a 70% percol cushion. 200 μls of the diluted parasite culture at 2% parasitemia and 2% hematocrit, is added to each well in a 96 well plate pre-seeded with the compound of interest at the required concentration. In general, compounds being screened for the first time are tested at a single concentration of 10 μM to detect any effect they may have on parasite growth. The master stocks and dilutions of the compounds are prepared in cell culture grade DMSO. NOTE: DMSO only treatment control is done and the results are used for normalizing the data obtained from compound treatment. All compounds are plated in triplicates. Each 96 well plate also includes negative control (compound untreated culture) and positive control (standard anti-malarial treated culture). Standard anti-malarials used are chloroquine, artemisinine and atovaquone, each at 1 μM concentration. After plating, the culture is incubated in standard growth condition for 60 hours, after which the cultures are processed for testing the effect of compounds on parasite growth as given below. We have standardized a modified SybrGreen dye based staining protocol (Plouffe D et. al. in Proc Natl Acad Sci, 2008, 105(26), 9059-64) for estimating parasite growth. SybrGreen dye binds to DNA and only the DNA bound dye gives a specific fluorescence emission ([…]) when excited ([…]). Since only the parasites have DNA (as RBCs are devoid of nucleus), the SybrGreen signal is a direct indictor of parasite growth. We have standardized a plate reader based read out assay for quantifying relative parasite growth (or conversely % inhibition of growth) in untreated, standard anti-malarial treated and test molecules treated P. falciparum cultures. 25 μl of 10× staining solution (0.5% Triton X100 & 10× SybrGreen dye in phosphate buffered saline) is added to each sample in 96 well plate, mixed and incubated for 30 min before taking readings. Data obtained is then tabulated to compare parasite growth between untreated, standard anti-malarial treated and compound treated parasite cultures. Compounds showing greater than 80% reduction in parasite growth are selected from this primary screening for carrying out dose response analysis using the respective test molecules from 10 μM to 1 nM. Data from this experiment is used for the calculation of IC50 values for the respective test molecules. Data from the preliminary screen (at 10 μM only) is shown in FIG. 1 and data from the dose response experiment is shown in FIG. 2.

As usually defined, the IC50 is the midpoint of a concentration-inhibition curve. A low value points to higher potency.

The molecule `O=C1C(O)=C([C@H]2CC[C@H](c3ccc(Cl)cc3)CC2)C(=O)c2ccccc21` [Atovaquone, reference compound] registered an IC50 of 0.00711 µM.

Regarding `C1=CC2OC(c3ccccc3)(c3ccccc3)c3ccccc3N2c2ccccc21` (stereo not drawn), the IC50 was 3.87 µM.

For `Cc1cc2c(cc1C)N1c3ccccc3C=C[C@@H]1O[C@@H]2c1ccc(Cl)cc1`, half-maximal inhibition (IC50) was put at 3.51 µM. For the molecule `O=C1C=CC2(C=C1)OC1C=Cc3ccccc3N1c1ccccc12` (stereo not drawn), 1.69 µM corresponded to half-maximal inhibition (IC50). `O=C(c1ccccc1)C1(c2ccccc2)OC2C=Cc3ccccc3N2c2ccccc21` (stereo not drawn) gave an IC50 of 2.64 µM. Take `CC1=C[C@@H]2O[C@H](c3ccc(Cl)cc3)c3ccccc3N2c2ccccc21`: the concentration for half-maximal inhibition (IC50) amounted to 3.8 µM.
